Data: patent US20110052643A1, “COMPOUNDS FOR INFLAMMATION AND IMMUNE-RELATED USES” (Synta Pharmaceuticals Corp., priority 2008, published 2011)

Test system: IL-2 production
Assay: Inhibition of IL-2 production in PHA-activated Jurkat cells (ELISA)
Assay type: cell-based
Conditions: Homo sapiens, 20 h, PHA 2.5 μg/mL, IL-2 ELISA, values given as ranges
Experimental: Jurkat cells were placed in a 96 well plate (0.5 million cells per well in 1% FBS medium) then a test compound of this invention was added at different concentrations. After 10 minutes, the cells were activated with PHA (final concentration 2.5 μg/mL) and incubated for 20 hours at 37° C. under CO2. The final volume was 200 μL. Following incubation, the cells were centrifuged and the supernatants collected and stored at −70° C. prior to assaying for IL-2 production. A commercial ELISA kit (IL-2 Eli-pair, Diaclone Research, Besancon, France) was used to detect production of IL-2, from which dose response curves were obtained. The IC50 value was calculated as the concentration at which 50% of maximum IL-2 production after stimulation was inhibited versus a non-stimulation control. Inhibition of other cytokines, such as IL-4, IL-5, IL-13, GM-CSF, TNF-α, and INF-γ, can be tested in a similar manner using a commercially available ELISA kit for each cytokine.

Row | Structure (SMILES) | IC50
1 | COc1ccc2c(c1)CCCc1sc(NC(=O)c3c(F)cccc3F)nc1-2 [Compound 42] | > 1000 nM
2 | O=C(Nc1nc2c(s1)CCCc1ccc(Br)cc1-2)c1c(F)cccc1F [Compound 43] | > 1000 nM
3 | Cc1nc2c(cc1C(=O)Nc1c(F)cccc1F)CCCc1ccc(-c3cccnc3)cc1-2 [Compound 48] | 100 to 250 nM
4 | Cc1nccn1-c1ccc2c(c1)-c1sc(C(=O)Nc3c(F)cccc3F)nc1CCC2 [Compound 115] | 250 to 500 nM
5 | O=C(Nc1ccc(F)cc1F)c1nc2c(s1)-c1cc(-n3ccnc3)ccc1CCC2 [Compound 122] | 100 to 250 nM
6 | O=C(Nc1ccc(F)c(F)c1F)c1nc2c(s1)-c1cc(-n3ccnc3)ccc1CCC2 [Compound 124] | 250 to 500 nM
7 | Cc1cnccc1NC(=O)c1nc2c(s1)-c1cc(-n3ccnc3)ccc1CCC2 [Compound 132] | 100 to 250 nM

The remaining lines, values ahead:

Row | IC50 | Structure (SMILES)
8 | ≤ 30 nM | O=C(Nc1c(F)cccc1F)c1cc2c(s1)-c1cc(Br)ccc1CCC2 [Compound 1]
9 | ≤ 30 nM | O=C(Nc1c(F)cccc1F)c1cc2c(s1)-c1cc(-c3cccnc3)ccc1CCC2 [Compound 2]
10 | 100 to 250 nM | O=C(Nc1c(F)cccc1F)c1cnc2c(c1)CCCc1ccc(-c3cccnc3)cc1-2 [Compound 45]
11 | 30 to 100 nM | O=C(Nc1cnc2c(n1)CCCC1=C2CN(c2nccs2)CC1)c1c(F)cccc1F [Compound 91]
12 | ≤ 30 nM | O=C(Nc1c(F)cccc1F)c1nc2c(s1)-c1cc(-n3ccnc3)ccc1CCC2 [Compound 113]
13 | 30 to 100 nM | Cc1cn(-c2ccc3c(c2)-c2sc(C(=O)Nc4c(F)cccc4F)nc2CCC3)cn1 [Compound 117]
14 | 30 to 100 nM | O=C(Nc1c(F)cccc1F)c1nc2c(s1)-c1cc(-n3cnnc3)ccc1CCC2 [Compound 121]
15 | ≤ 30 nM | O=C(Nc1c(F)ccc(F)c1F)c1nc2c(s1)-c1cc(-n3ccnc3)ccc1CCC2 [Compound 126]
16 | 30 to 100 nM | O=C(Nc1c(F)cc(F)cc1F)c1nc2c(s1)-c1cc(-n3ccnc3)ccc1CCC2 [Compound 130]
17 | ≤ 30 nM | CCc1cn(-c2ccc3c(c2)-c2ncc(NC(=O)c4c(F)cccc4F)nc2CCC3)cn1 [Compound 134]
